{"source": "ChEMBL document CHEMBL1201862", "about": "“PubChem BioAssay data set” (2004)", "key": {"[1]": {"biological_target": "T1, Alkaline phosphatase, tissue-nonspecific isozyme (Homo sapiens, UniProt P05186)", "T1 sequence (P05186 whole entry)": "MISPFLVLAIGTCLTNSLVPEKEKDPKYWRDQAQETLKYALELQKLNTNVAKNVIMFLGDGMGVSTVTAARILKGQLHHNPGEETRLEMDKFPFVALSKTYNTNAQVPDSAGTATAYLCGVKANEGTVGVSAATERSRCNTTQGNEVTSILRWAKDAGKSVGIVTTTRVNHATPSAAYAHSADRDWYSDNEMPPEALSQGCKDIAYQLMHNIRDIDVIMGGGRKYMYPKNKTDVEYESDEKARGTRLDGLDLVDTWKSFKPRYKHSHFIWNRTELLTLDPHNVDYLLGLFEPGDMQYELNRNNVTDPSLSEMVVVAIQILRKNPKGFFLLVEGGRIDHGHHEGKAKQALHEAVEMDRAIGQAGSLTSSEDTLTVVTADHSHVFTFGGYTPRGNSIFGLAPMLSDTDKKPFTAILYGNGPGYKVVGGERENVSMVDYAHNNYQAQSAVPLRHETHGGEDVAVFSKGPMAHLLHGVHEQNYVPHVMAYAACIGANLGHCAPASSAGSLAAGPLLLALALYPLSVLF"}, "[2]": {"assay": "Luminescence-based counterscreen assay for KLF5 inhibitors: dose response cell-based high throughput screening assay to identify cytotoxic compounds using the IEC-6 intestinal epithelial cell line. [Related pubchem assays: 1700 (Primary screen.), 1834 (Confirmation screen.), 1858 (Summary AID.), 1905 (Counterscreen.)]", "assay_type": "functional"}, "[3]": {"biological_target": "T2, Microphthalmia-associated transcription factor (Homo sapiens, UniProt O75030)", "T2 sequence (O75030 whole entry)": "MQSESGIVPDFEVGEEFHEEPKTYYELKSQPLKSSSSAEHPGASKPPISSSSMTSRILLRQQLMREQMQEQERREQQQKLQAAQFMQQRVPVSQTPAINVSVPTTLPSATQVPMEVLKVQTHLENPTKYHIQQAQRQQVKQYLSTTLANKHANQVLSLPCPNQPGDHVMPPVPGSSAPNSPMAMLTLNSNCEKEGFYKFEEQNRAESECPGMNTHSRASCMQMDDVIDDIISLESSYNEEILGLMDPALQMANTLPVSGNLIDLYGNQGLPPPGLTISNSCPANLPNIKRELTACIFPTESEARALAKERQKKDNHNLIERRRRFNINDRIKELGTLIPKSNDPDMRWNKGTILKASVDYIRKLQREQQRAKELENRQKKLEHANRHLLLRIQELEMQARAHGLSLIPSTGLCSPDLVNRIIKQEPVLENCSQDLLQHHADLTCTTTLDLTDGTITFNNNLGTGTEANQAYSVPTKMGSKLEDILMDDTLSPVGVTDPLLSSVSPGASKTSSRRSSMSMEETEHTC", "assay": "reducers of TRPM1 reporter luminescence, concentration series – cell-based, SK-MEL-5, cherry-picked, set 3, MITF inhibitor project, dose response (AID 493073)", "assay_type": "functional"}, "[4]": {"assay": "luciferase reporter signal suppression in cells – H4 neuroglioma cells, luminescence, dose response (AID 1990)", "assay_type": "functional, cell-based"}, "[5]": {"assay": "toxicity toward HepG2 liver cells – cell-based, plate reader, cherry-pick, antagonist series, cytotoxicity control, dose response (AID 743416)", "assay_type": "functional"}, "[6]": {"assay": "blockade of melanocortin 4 receptor signaling – cell-based, plate reader, cherry pick, counter-screen for LGR2 antagonist project, dose response (AID 743444);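 further: transfected HEK 293 cells stimulated with alpha-MSH peptide; potency of inhibitors of the alpha-MSH evoked signal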", "assay_type": "functional"}, "[7]": {"assay": "alpha-synuclein stem-loop luciferase translation blockers – H4 neuroglioma cells, luminescence, confirmation (AID 1988)", "assay_type": "functional, cell-based"}, "[8]": {"tested_on": "HT-1080", "assay": "HT1080 cell viability loss – fluorescence readout (AID 620)", "assay_type": "functional, cell-based", "conditions": "Homo sapiens"}, "[9]": {"tested_on": "A-375", "assay": "MITF: Counter assay: A375 proliferation Measured in Cell-Based System Using Plate Reader - 2084-03_Inhibitor_Dose_DryPowder_Activity. [Related pubchem assays (depositor defined):AID488944]", "assay_type": "functional", "conditions": "Homo sapiens"}, "[10]": {"assay": "blockers of bursicon-stimulated LGR2 cAMP reporter – cell-based, HEK293, CRE-luciferase reporter, cherry pick, set 2, dose response (AID 743343);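 further: transfected cells were stimulated with diluted bursicon conditioned medium after compound addition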", "assay_type": "functional"}, "[11]": {"tested_on": "BJ", "assay": "cells", "assay_type": "functional, cell-based", "conditions": "Homo sapiens"}, "[12]": {"biological_target": "Luciferin 4-monooxygenase (Photinus pyralis, UniProt P08659)", "sequence (P08659 whole entry)": "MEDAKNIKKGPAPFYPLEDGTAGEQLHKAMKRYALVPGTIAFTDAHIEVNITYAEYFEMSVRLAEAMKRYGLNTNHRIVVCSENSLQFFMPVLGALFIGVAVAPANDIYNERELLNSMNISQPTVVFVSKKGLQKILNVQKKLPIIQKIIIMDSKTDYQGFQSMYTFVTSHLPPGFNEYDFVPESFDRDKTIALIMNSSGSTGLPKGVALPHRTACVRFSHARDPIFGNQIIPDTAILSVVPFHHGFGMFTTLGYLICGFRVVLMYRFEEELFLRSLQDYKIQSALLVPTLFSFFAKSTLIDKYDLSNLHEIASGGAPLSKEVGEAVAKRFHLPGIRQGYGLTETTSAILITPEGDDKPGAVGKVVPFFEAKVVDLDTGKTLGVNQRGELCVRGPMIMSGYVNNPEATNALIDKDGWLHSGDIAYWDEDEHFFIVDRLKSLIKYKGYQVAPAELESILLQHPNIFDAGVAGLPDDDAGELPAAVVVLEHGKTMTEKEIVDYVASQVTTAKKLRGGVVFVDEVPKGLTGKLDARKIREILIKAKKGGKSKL", "assay": "Counter Screen for Luciferase-based Assay Positives. [Related pubchem assays: 620, 618, 411 ]"}, "[13]": {"assay": "DRD fibroblast viability loss – cell-based, non-viral oncogenic, luminescence, dose response (AID 1934)", "assay_type": "functional", "conditions": "Homo sapiens"}, "[14]": {"assay": "alpha-synuclein stem-loop translation blockers – luminescence, H4 neuroglioblastoma cells, dose confirmation, confirmation (AID 2454)", "assay_type": "functional, cell-based"}, "[15]": {"assay": "viability loss in HEK293 cells – cell-based, plate reader, cherry-picked samples, cytotoxicity control, dose response (AID 743446)", "assay_type": "functional"}, "[16]": {"assay": "A549 cell cytotoxicity, dose response, cytotoxicity control, plate reader, cherry-pick, antagonist series (AID 743412)", "assay_type": "functional, cell-based"}, "[17]": {"assay": "Luminescence Cell-Based Dose Response HTS to Identify Inhibitors of 5'UTR Stem-Loop Driven Prion Protein mRNA Translation in H4 Neuroglioblastoma Cells. [Related pubchem assays: 1827 (Project Summary), 1813 (Primary HTS)]", "assay_type": "functional"}, "[18]": {"tested_on": "BJ", "assay": "BJ-TERT-LT-ST fibroblast viability loss – cell-based, RAS-independent, luminescence, dose response (AID 1935);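 further: BJ fibroblasts immortalized with TERT plus LT and ST oncogenes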", "assay_type": "functional", "conditions": "Homo sapiens"}, "[19]": {"biological_target": "Glyceraldehyde-3-phosphate dehydrogenase (Homo sapiens, UniProt P04406)", "sequence (P04406 whole entry)": "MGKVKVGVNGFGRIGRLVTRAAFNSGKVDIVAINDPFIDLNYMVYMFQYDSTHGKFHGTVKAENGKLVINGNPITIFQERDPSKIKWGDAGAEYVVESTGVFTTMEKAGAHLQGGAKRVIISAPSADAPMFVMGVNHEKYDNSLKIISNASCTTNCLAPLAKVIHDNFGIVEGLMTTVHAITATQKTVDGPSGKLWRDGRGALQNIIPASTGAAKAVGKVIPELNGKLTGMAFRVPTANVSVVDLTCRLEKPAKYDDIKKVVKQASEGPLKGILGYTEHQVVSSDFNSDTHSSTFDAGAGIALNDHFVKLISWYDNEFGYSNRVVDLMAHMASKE"}, "[20]": {"tested_on": "BJ", "assay": "growth inhibition of engineered Ras-driven BJ cells – cell-based, alamar blue fluorescence, cherrypicked samples, dose response (AID 2631)", "assay_type": "functional", "conditions": "Homo sapiens"}, "[21]": {"tested_on": "BJ", "assay": "BJ-TERT fibroblast viability loss – cell-based, RAS-independent, luminescence, dose response (AID 1933)", "assay_type": "functional", "conditions": "Homo sapiens"}, "[22]": {"assay": "cells", "assay_type": "functional, cell-based"}, "[23]": {"assay": "luciferase reporter signal reduction – luminescence, H4-C neuroglioblastoma cells, dose response (AID 2458);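 further: H4 neuroglioblastoma cells stably carrying a luciferase reporter gene fusion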", "assay_type": "functional, cell-based"}, "[24]": {"biological_target": "Protein Rev (Human immunodeficiency virus type 1 group M subtype B (isolate WMJ22)(HIV-1), UniProt P05866)", "sequence (P05866 whole entry)": "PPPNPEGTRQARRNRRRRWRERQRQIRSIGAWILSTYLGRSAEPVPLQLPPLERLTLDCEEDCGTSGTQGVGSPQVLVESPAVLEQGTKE", "assay": "inhibitors of Rev protein–RRE RNA complex – biochemical, protein-RNA interaction, dose response (AID 842)", "set-up": "species or system Human immunodeficiency virus 1"}, "[25]": {"tested_on": "Streptococcus", "assay": "GAS UMAA2166 growth inhibition – luminescence, BacTiterGlo, counter-screen for streptokinase expression inhibitor project, dose response (AID 1915)", "assay_type": "functional, organism-based"}, "[26]": {"tested_on": "Streptococcus sp. 'group A'", "assay": "Streptococcus pyogenes SK(-)GAS viability under kanamycin – luminescence, BacTiterGlo, confirmation, counter-screen for streptokinase expression inhibitor project, dose response (AID 1900)", "assay_type": "functional, organism-based"}, "[27]": {"assay": "CCR5-tropic HIV-1 fusion blockers – cell-based, CCR5-tropic Env, dose response (AID 2279)", "assay_type": "functional"}, "[28]": {"biological_target": "T3, Streptokinase A (Streptococcus pyogenes serotype M1, UniProt P10520)", "T3 sequence (P10520 whole entry)": "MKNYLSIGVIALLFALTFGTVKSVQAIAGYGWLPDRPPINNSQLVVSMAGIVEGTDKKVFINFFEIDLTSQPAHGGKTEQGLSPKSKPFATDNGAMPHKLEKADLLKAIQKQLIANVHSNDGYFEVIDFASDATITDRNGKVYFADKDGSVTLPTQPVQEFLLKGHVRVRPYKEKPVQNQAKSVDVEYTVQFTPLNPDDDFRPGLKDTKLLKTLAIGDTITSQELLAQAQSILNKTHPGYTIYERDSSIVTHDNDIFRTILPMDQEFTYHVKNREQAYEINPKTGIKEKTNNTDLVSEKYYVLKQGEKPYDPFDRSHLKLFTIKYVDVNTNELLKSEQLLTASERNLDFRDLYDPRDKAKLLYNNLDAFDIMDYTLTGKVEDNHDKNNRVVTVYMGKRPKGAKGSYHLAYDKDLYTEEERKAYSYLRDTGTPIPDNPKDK", "assay": "viability-normalized secreted streptokinase activity reduction – plasminogen activation absorbance, OD405, dose response (AID 1914)", "assay_type": "functional, Streptococcus pyogenes M1 GAS"}, "[29]": {"biological_target": "Cytochrome P450 2D6 (Homo sapiens, UniProt P10635)", "sequence (P10635 whole entry)": "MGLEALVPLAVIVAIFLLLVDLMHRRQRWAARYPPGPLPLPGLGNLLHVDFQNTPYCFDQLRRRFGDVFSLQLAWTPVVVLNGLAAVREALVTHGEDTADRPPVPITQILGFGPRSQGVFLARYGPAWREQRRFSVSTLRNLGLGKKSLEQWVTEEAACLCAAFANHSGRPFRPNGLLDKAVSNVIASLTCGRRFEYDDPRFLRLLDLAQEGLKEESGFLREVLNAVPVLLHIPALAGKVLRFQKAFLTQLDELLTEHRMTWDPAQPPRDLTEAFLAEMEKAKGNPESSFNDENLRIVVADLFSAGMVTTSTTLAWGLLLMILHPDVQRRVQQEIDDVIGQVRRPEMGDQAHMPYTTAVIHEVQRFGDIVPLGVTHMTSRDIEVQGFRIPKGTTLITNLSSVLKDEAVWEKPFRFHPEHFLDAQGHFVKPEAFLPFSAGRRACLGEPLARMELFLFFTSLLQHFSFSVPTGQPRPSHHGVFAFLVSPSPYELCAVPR", "assay": "qHTS Assay for Inhibitors and Substrates of Cytochrome P450 2D6. [Related pubchem assays: 410 ]", "assay_type": "ADME", "conditions": "read-out: Potency"}, "[30]": {"biological_target": "Cytochrome P450 2C9 (Homo sapiens, UniProt P11712)", "sequence (P11712 whole entry)": "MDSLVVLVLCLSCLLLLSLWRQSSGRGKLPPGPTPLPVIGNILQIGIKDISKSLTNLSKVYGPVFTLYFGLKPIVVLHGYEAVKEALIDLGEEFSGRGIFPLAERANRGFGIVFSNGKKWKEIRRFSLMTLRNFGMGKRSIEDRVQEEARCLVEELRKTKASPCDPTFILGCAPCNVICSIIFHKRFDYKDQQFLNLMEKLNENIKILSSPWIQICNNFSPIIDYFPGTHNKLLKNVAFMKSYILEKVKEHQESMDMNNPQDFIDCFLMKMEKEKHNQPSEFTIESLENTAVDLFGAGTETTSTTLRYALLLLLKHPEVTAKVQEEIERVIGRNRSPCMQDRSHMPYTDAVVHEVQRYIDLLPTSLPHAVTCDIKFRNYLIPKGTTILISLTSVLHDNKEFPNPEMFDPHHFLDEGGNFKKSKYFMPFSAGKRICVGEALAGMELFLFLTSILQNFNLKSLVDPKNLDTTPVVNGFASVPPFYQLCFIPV", "conditions": "Potency"}}, "note": "Active and inactive are the calls of the source. For most assays here, no stated cut-off is given here; in the data, actives have a measured EC50 and inactives only a lower limit.", "data": [{"compound": "COc1cc(C(=S)N2CCOCC2)ccc1OC(=O)/C=C/c1ccco1", "values": [{"measurement": "EC50", "setting": "[1]", "result": "> 100 µM (not active)"}]}, {"compound": "Cc1ccc(-c2nnc(SCC(=O)Nc3ccccc3F)o2)cc1", "values": [{"measurement": "IC50", "setting": "[2]", "result": "34.7 µM (not active)"}, {"measurement": "AC50", "setting": "[3]", "result": "2.3 µM (active)"}, {"measurement": "EC50", "setting": "[4]", "result": "< 0.195 µM (active)"}, {"measurement": "AC50", "setting": "[5]", "result": "12.4 µM (active)"}, {"measurement": "AC50", "setting": "[6]", "result": "14.7 µM (active)"}, {"measurement": "EC50", "setting": "[7]", "result": "< 0.1 µM (active)"}, {"measurement": "EC50", "setting": "[8]", "result": "> 50 µM (not active)"}, {"measurement": "AC50", "setting": "[9]", "result": "33.7 µM (active)"}, {"measurement": "AC50", "setting": "[10]", "result": "7.12 µM (active)"}, {"measurement": "EC50", "setting": "[11]", "result": "6.59 µM (active)"}, {"measurement": "EC50", "setting": "[12]", "result": "9.52 µM (active)"}, {"measurement": "EC50", "setting": "[13]", "result": "7.36 µM (inconclusive)"}, {"measurement": "EC50", "setting": "[14]", "result": "> 12 µM (inconclusive)"}, {"measurement": "AC50", "setting": "[15]", "result": "9.16 µM (active)"}, {"measurement": "AC50", "setting": "[16]", "result": "8.7 µM (active)"}, {"measurement": "EC50", "setting": "[17]", "result": "< 0.1 µM (active)"}, {"measurement": "EC50", "setting": "[18]", "result": "21.7 µM (active)"}, {"measurement": "IC50", "setting": "[19]", "result": "> 100 µM (not active)"}, {"measurement": "EC50", "setting": "[20]", "result": "> 133 µM (inactive)"}, {"measurement": "EC50", "setting": "[21]", "result": "10.2 µM (active)"}, {"measurement": "EC50", "setting": "[22]", "result": "0.839 µM (active)"}, {"measurement": "EC50", "setting": "[23]", "result": "> 12 µM (inconclusive)"}]}, {"compound": "CC(C)CN=c1cc(-c2ccccc2)oc2ccc(Cl)cc12", "values": [{"measurement": "IC50", "setting": "[24]", "result": "> 79.4 µM (not active)"}]}, {"compound": "CCOc1cc(/C=N/Nc2cccc(C(=O)O)c2)ccc1OC(=O)c1ccccc1", "values": [{"measurement": "EC50", "setting": "[25]", "result": "17 µM (active)"}, {"measurement": "AC50", "setting": "[3]", "result": "1.38 µM (active)"}, {"measurement": "EC50", "setting": "[26]", "result": "3.53 µM (active)"}, {"measurement": "IC50", "setting": "[27]", "result": "3.03 µM (active)"}, {"measurement": "EC50", "setting": "[28]", "result": "> 150 µM (not active)"}]}, {"compound": "COc1ccc(C[C@@H]2NC[C@H](O)[C@H]2OC(C)=O)cc1", "values": [{"measurement": "AC50", "setting": "[29]", "result": "20 µM (inconclusive)"}]}, {"compound": "CC[C@H](C)C(=O)O[C@@H]1CCC=C2C=C[C@H](C)[C@@H](CC[C@H]3C[C@@H](O)CC(=O)O3)[C@H]21", "values": [{"measurement": "AC50", "setting": "[30]", "result": "39.8 µM (inconclusive)"}]}]}
